Patent US7820817B2, “Modulators of muscarinic receptors” (Vertex Pharmaceuticals Incorporated, priority 2004, dated 2010)

System: at least one muscarinic receptor, M1, M2, M3, M4
Test: Muscarinic modulation activity (Table 3)
Type: cell-based
Set-up: key: +++: exhibited muscarinic modulation activity for at least one muscarinic receptor, M1, M2, M3, M4, at a concentration of less than 5 μM; ++: exhibited muscarinic modulation activity for at least one muscarinic receptor, M1, M2, M3, M4, at a concentration of between 30 μM and 5 μM; +: exhibited muscarinic modulation activity for at least one muscarinic receptor, M1, M2, M3, M4, at a concentration of greater than 30 μM; −: were not assayed or did not exhibit muscarinic modulation activity for at least one muscarinic receptor, M1, M2, M3, M4, at the concentration at which the assay was performed
Details: concentration at which modulation of at least one muscarinic receptor, M1, M2, M3, M4, was exhibited; CHO cells
Experimental: CHO cells expressing muscarinic receptors (M1 to M5) are grown as monolayers in tissue culture flasks at 37° C. in a humidified atmosphere containing 5% CO2 and passaged every 3-5 days. The growth media is Dulbecco's modified eagles medium (DMEM, Gibco Cat#12430-054), containing 25 mM Hepes and supplemented with Fetal Bovine Serum (Hyclone, cat#SH30071.03), 0.1 mM of MEM non-essential amino acids (GIBCO, Cat#11140-050), 1 mM MEM Sodium Pyruvate (GIBCO Cat#11360-070) and 100 units/ml of Penicillin G and 100 μg/ml of Streptomycin (GIBCO Cat#15140-122). The recombinant muscarinic receptor cell lines are grown under antibiotic pressure with media containing 25 μg/ml zeocin and 500 μg/ml G418 (M1-CHO), 4 μg/ml puromycin, 50 μg/ml zeocin and 2.5 μg/ml blasticidin (M2 and M4-CHO) or 50 μg/ml zeocin and 4 μg/ml puromycin (M3 and M5-CHO).
Cells are harvested at 80-90% confluence using Versene (GIBCO Cat#15040-066), collected by centrifugation and seeded 18-24 hrs prior to running the calcium assay at a density of 5,000-10,000 cells/well in […], clear-bottomed 384-well plates (BD Biocoat, poly-D-lysine, Cat#356663). The day of the experiment, the cells are washed with a plate washer (Bioteck Instruments, ELX 405) using bath1 buffer (140-mM NaCl, 4.5-mM KCl, 2-mM CaCl2, 1-mM MgCl2, 10-mM Hepes-Na, 10-mM Glucose, pH 7.4, with NaOH) containing 1 mM Probenecid. Next, the calcium dye Fluo-3 (25 μl/well of Fluo-3 AM at 4 μM, Molecular Probes F-1241, in Bath 1 buffer containing 1 mM Probenecid) is added to the 25 μl of Bath 1 remaining in each well after the plate wash and the dye is loaded at 37° C. in the tissue culture incubator for 60-90 min. The fluorescent dye is removed using the plate washer with Bath 1 containing 1 mM Probenecid, leaving 25 μl/well of this solution after the wash. Alternatively, cells can be loaded with the calcium indicator from Molecular Devices (Calcium 3 Assay Reagents, Cat #R7181) adding 5 μl of a 5× solution dye in Bath 1 containing 1 mM Probenecid (10 ml per dye flask cat#R7182 to generate a solution […]) to 20 μl of the same buffer. After loading for 60 min. the experiment can be run without having to remove the dye.
Compounds are prepared at a 2× fold concentration in a 96-well plate (round bottom, Costar Corning cat#3656), by reconstituting the pre-spotted compounds in bath 1 containing 1 mM probenecid. The final concentration DMSO is 0.5%, and the amount of DMSO is normalized across the assay plate. To determine an agonist action of the compounds on muscarinic receptors, the reconstituted compounds are added (25 μl compound/well) to the cell assay plate (containing 25 μl/well) using the multi-channel robotic system of the FLIPR 3 Instrument (Molecular Devices, Sunnyvale, Calif.). To determine a functional inhibitory action of the compounds on muscarinic receptors, the reconstituted compounds are added (25 μl compound/well) to the assay plate and pre-incubated for 15 min prior to adding 25 μl of Carbachol at 3× the EC80 for each muscarinic subtype. Alternatively, the compounds can be co-applied simultaneously with the agonist. In both assay modes, the fluorescence is recorded for 60 sec (excitation wavelength is […] and emission wavelength 540 nm) using the FLIPR 3 instrument.
The potency, efficacy and selectivity of the muscarinic compounds were evaluated by screening the compound activity across the whole family (M1 to M5 cells).
CHO cells expressing muscarinic receptors (M1 to M5) and containing a gene reporter system β-Lactamase) with transcriptional control mediated by calcium release (NFAT activation). See Zlokarnik, G; Negulescu, P. A.; Knapp, T. E.; Mere, L; Burres, N; Feng, L; Whitney, M; Roemer, K; Tsien, R. Y. Quantitation of transcription and clonal selection of single living cells with β-lactamase as reporter. Science, 1998 Jan. 2, 279(5347):84-8. The cells are grown as monolayers in tissue culture flasks at 37° C. in a humidified atmosphere containing 5% CO2 and passaged every 3-5 days. […]

Structure (SMILES) | ACTIVITY (muscarinic modulation activity)
c1cnc(N2CCN(C3CC4CCC3C4)CC2)cn1 (centres unmarked) [Compound 44, 2-(4-norbornan-2-ylpiperazin-1-yl)pyrazine] | ++ (exhibited muscarinic modulation activity for at least one muscarinic receptor, M1, M2, M3, M4, at a concentration of between 30 μM and 5 μM)
N#Cc1cc(-c2ccccc2)cnc1N1CCN(CC2CC3CCC2C3)CC1 (centres unmarked) [Compound 46, 2-[4-(norbornan-2-ylmethyl)piperazin-1-yl]-5-phenyl-nicotinonitrile] | ++ (exhibited muscarinic modulation activity for at least one muscarinic receptor, M1, M2, M3, M4, at a concentration of between 30 μM and 5 μM)
FC(F)(F)c1ccc(N2CCN(CC3CC4C=CC3C4)CC2)nc1 (centres unmarked) [Compound 47, 1-(5-bicyclo[2.2.1]hept-2-enylmethyl)-4-[5-(trifluoromethyl)-2-pyridyl]-piperazine] | + (exhibited muscarinic modulation activity for at least one muscarinic receptor, M1, M2, M3, M4, at a concentration of greater than 30 μM)
C1=CC2CC1CC2CN1CCN(c2ccccn2)CC1 (centres unmarked) [Compound 48, 1-(5-bicyclo[2.2.1]hept-2-enylmethyl)-4-(2-pyridyl)piperazine] | ++ (exhibited muscarinic modulation activity for at least one muscarinic receptor, M1, M2, M3, M4, at a concentration of between 30 μM and 5 μM)
CCOC(=O)N1C2CCC1CC(N1CCN(c3ccncc3S(N)(=O)=O)CC1)C2 (centres unmarked) [Compound 49, 3-[4-(3-sulfamoyl-4-pyridyl)piperazin-1-yl]-8-azabicyclo[3.2.1]octane-8-carboxylic acid ethyl ester] | +++ (exhibited muscarinic modulation activity for at least one muscarinic receptor, M1, M2, M3, M4, at a concentration of less than 5 μM)
c1ccc2c(c1)nnn2C1CCN(C2CC3CCC2C3)CC1 (centres unmarked) [Compound 50, 1-(1-norbornan-2-yl-4-piperidyl)-1H-benzotriazole] | ++ (exhibited muscarinic modulation activity for at least one muscarinic receptor, M1, M2, M3, M4, at a concentration of between 30 μM and 5 μM)
CCOC(=O)N1C2CCC1CC(N1CCN(c3ccc(C(C)=O)cn3)CC1)C2 (centres unmarked) [Compound 51, 3-[4-(5-acetyl-2-pyridyl)piperazin-1-yl]-8-azabicyclo[3.2.1]octane-8-carboxylic acid ethyl ester] | +++ (exhibited muscarinic modulation activity for at least one muscarinic receptor, M1, M2, M3, M4, at a concentration of less than 5 μM)
Clc1cccnc1N1CCN(CC2CC3C=CC2C3)CC1 (centres unmarked) [Compound 52, 1-(5-bicyclo[2.2.1]hept-2-enylmethyl)-4-(3-chloro-2-pyridyl)-piperazine] | ++ (exhibited muscarinic modulation activity for at least one muscarinic receptor, M1, M2, M3, M4, at a concentration of between 30 μM and 5 μM)
N#Cc1ccc(C(F)(F)F)nc1N1CCN(CC2CC3C=CC2C3)CC1 (centres unmarked) [Compound 53, 2-[4-(5-bicyclo[2.2.1]hept-2-enylmethyl)piperazin-1-yl]-6-(trifluoromethyl)nicotinonitrile] | + (exhibited muscarinic modulation activity for at least one muscarinic receptor, M1, M2, M3, M4, at a concentration of greater than 30 μM)
N#Cc1cccnc1C1CCN(CC2CC3C=CC2C3)CC1 (centres unmarked) [Compound 54, 2-[1-(5-bicyclo[2.2.1]hept-2-enylmethyl)-4-piperidyl]nicotinonitrile] | +++ (exhibited muscarinic modulation activity for at least one muscarinic receptor, M1, M2, M3, M4, at a concentration of less than 5 μM)
NS(=O)(=O)c1cnccc1N1CCN(CC2CC3CCC2C3)CC1 (centres unmarked) [Compound 55, 4-[4-(norbornan-2-ylmethyl)piperazin-1-yl]pyridine-3-sulfonamide] | ++ (exhibited muscarinic modulation activity for at least one muscarinic receptor, M1, M2, M3, M4, at a concentration of between 30 μM and 5 μM)
CCOC(=O)N1C2CCC1CC(N1CCN(c3cc(C#N)ccn3)CC1)C2 (centres unmarked) [Compound 56, 3-[4-(4-cyano-2-pyridyl)piperazin-1-yl]-8-azabicyclo[3.2.1]octane-8-carboxylic acid ethyl ester] | +++ (exhibited muscarinic modulation activity for at least one muscarinic receptor, M1, M2, M3, M4, at a concentration of less than 5 μM)
CCOC(=O)N1C2CCC1CC(N1CCC(c3nc(OC)cc(OC)n3)CC1)C2 (centres unmarked) [Compound 57, 3-[4-(4,6-dimethoxypyrimidin-2-yl)-1-piperidyl]-8-azabicyclo[3.2.1]octane-8-carboxylic acid ethyl ester] | +++ (exhibited muscarinic modulation activity for at least one muscarinic receptor, M1, M2, M3, M4, at a concentration of less than 5 μM)
CCOC(=O)N1C2CCC1CC(N1CCN(c3nc(Cl)cc(C(F)(F)F)c3C#N)CC1)C2 (centres unmarked) [Compound 58, 3-[4-[6-chloro-3-cyano-4-(trifluoromethyl)-2-pyridyl]piperazin-1-yl]-8-azabicyclo[3.2.1]octane-8-carboxylic acid ethyl ester] | −
N#Cc1cc(-c2ccccc2)nnc1N1CCN(CC2CC3CCC2C3)CC1 (centres unmarked) [Compound 59, 3-[4-(norbornan-2-ylmethyl)piperazin-1-yl]-6-phenyl-pyridazine-4-carbonitrile] | + (exhibited muscarinic modulation activity for at least one muscarinic receptor, M1, M2, M3, M4, at a concentration of greater than 30 μM)
Cc1cccnc1N1CCN(C2CC3CCC2C3)CC1 (centres unmarked) [Compound 60, 1-(3-methyl-2-pyridyl)-4-norbornan-2-yl-piperazine] | + (exhibited muscarinic modulation activity for at least one muscarinic receptor, M1, M2, M3, M4, at a concentration of greater than 30 μM)
c1cc(N2CCN(C3CCC4CCC3C4)CC2)ccn1 (centres unmarked) [Compound 61, 1-(2-bicyclo[3.2.1]octyl)-4-(4-pyridyl)piperazine] | −
Cc1ccc(C#N)c(N2CCN(CC3CC4C=CC3C4)CC2)n1 (centres unmarked) [Compound 62, 2-[4-(5-bicyclo[2.2.1]hept-2-enylmethyl)piperazin-1-yl]-6-methyl-nicotinonitrile] | +++ (exhibited muscarinic modulation activity for at least one muscarinic receptor, M1, M2, M3, M4, at a concentration of less than 5 μM)
Cc1nccnc1N1CCN(C2CC3CCC2C3)CC1 (centres unmarked) [Compound 63, 2-methyl-3-(4-norbornan-2-ylpiperazin-1-yl)-pyrazine] | + (exhibited muscarinic modulation activity for at least one muscarinic receptor, M1, M2, M3, M4, at a concentration of greater than 30 μM)
N#Cc1cccnc1N1CCN(CC2CCC3CCC2C3)CC1 (centres unmarked) [Compound 64, 2-[4-(4-bicyclo[3.2.1]octylmethyl)piperazin-1-yl]nicotinonitrile] | + (exhibited muscarinic modulation activity for at least one muscarinic receptor, M1, M2, M3, M4, at a concentration of greater than 30 μM)
